Source: US20250270200A1, “CTPS1 INHIBITORS AND USES THEREOF” (Nimbus Clotho, Inc., priority 2022, published 2025)
Counter-ions that a name gives are not always drawn.

Biological target: T1, human CTPS1 (Homo sapiens, UniProt P17812)
T1 sequence (P17812 1-591): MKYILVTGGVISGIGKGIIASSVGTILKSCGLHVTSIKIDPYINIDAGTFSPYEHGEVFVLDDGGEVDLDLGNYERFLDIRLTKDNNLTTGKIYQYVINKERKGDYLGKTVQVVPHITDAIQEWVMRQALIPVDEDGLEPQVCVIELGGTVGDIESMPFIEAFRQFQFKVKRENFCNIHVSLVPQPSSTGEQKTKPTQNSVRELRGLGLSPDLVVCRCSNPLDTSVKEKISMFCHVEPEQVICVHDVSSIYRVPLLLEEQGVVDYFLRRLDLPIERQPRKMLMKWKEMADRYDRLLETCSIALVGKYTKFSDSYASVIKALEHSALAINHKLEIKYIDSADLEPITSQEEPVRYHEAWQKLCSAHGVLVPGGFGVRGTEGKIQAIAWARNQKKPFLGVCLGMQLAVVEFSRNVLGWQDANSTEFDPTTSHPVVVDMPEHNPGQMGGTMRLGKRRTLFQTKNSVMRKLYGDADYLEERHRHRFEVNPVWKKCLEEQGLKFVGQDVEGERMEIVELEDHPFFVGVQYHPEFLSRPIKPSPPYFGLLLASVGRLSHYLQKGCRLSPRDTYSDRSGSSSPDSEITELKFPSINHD
Test: ADP-Glo assay, human CTPS1 enzyme inhibition
Type: biochemical
Conditions: wild-type human CTPS1, 25 nM enzyme; ADP-Glo; read-out: ADP-Glo_WT_hCTPS1—25 nM_IC50 (IC50)
Procedure, shortened: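 Full-length tagged human CTPS1 (25 nM) pre-incubated 10 min at 25° C with compound, then 10 min with ATP (120 μM) and UTP (160 μM); reaction started with L-glutamine (100 μM) and GTP (60 μM), 1% DMSO, in HEPES pH 7.4, 10 mM Mg2+, 5 mM KCl, 2 mM DTT. Run within linear phase at 25° C; ADP measured by ADP-Glo luminescence.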

Structure (SMILES) | IC50 [nM]
CCOc1cncc(-c2ccc(C(=O)N[C@H](CN3CCOCC3)c3cc(NS(=O)(=O)C4CC4)ccn3)c(F)c2)n1 [I-144, (R)-N-(1-(4-(cyclopropanesulfonamido)pyridin-2-yl)-2-morpholinoethyl)-4-(6-ethoxypyrazin-2-yl)-2-fluorobenzamide] | 5 to 25
O=C(N[C@@H](CN1CCOCC1)c1cc(NS(=O)(=O)C2CC2)ccn1)c1ncc(-c2cnn3ccc(Cl)cc23)s1 [I-145, (S)-5-(5-chloropyrazolo[1,5-a]pyridin-3-yl)-N-(1-(4-(cyclopropanesulfonamido)pyridin-2-yl)-2-morpholinoethyl)thiazole-2-carboxamide] | 5 to 25
O=C(N[C@H](CN1CCOCC1)c1cc(NS(=O)(=O)C2CC2)ccn1)c1ncc(-c2cnn3ccc(Cl)cc23)s1 [I-146, (R)-5-(5-chloropyrazolo[1,5-a]pyridin-3-yl)-N-(1-(4-(cyclopropanesulfonamido)pyridin-2-yl)-2-morpholinoethyl)thiazole-2-carboxamide] | 5 to 25
CCOc1cncc(-c2cnc(C(=O)N[C@@H](CN3CCN(C)C(=O)C3)c3cc(NS(=O)(=O)C4CC4)ccn3)s2)n1 [I-147, (S)-N-(1-(4-(cyclopropanesulfonamido)pyridin-2-yl)-2-(4-methyl-3-oxopiperazin-1-yl)ethyl)-5-(6-ethoxypyrazin-2-yl)thiazole-2-carboxamide] | 5 to 25
CCOc1cncc(-c2cnc(C(=O)N[C@H](CN3CCN(C)C(=O)C3)c3cc(NS(=O)(=O)C4CC4)ccn3)s2)n1 [I-148, (R)-N-(1-(4-(cyclopropanesulfonamido)pyridin-2-yl)-2-(4-methyl-3-oxopiperazin-1-yl)ethyl)-5-(6-ethoxypyrazin-2-yl)thiazole-2-carboxamide] | 5 to 25
CCOc1cncc(-c2cnc(C(=O)N[C@@H](CN3C[C@H]4CC[C@@H]3C4)c3cc(NS(=O)(=O)C4CC4)ccn3)s2)n1 [I-149, N-((S)-2-((1R,4S)-2-azabicyclo[2.2.1]heptan-2-yl)-1-(4-(cyclopropanesulfonamido)pyridin-2-yl)ethyl)-5-(6-ethoxypyrazin-2-yl)thiazole-2-carboxamide] | 50 to 100
CCOc1cncc(-c2cnc(C(=O)N[C@H](CN3C[C@H]4CC[C@@H]3C4)c3cc(NS(=O)(=O)C4CC4)ccn3)s2)n1 [I-150, N-((R)-2-((1R,4S)-2-azabicyclo[2.2.1]heptan-2-yl)-1-(4-(cyclopropanesulfonamido)pyridin-2-yl)ethyl)-5-(6-ethoxypyrazin-2-yl)thiazole-2-carboxamide] | 5 to 25
CCOc1cncc(-c2cnc(C(=O)N[C@@H](CN3C[C@H]4C[C@@H](C3)C4)c3cc(NS(=O)(=O)C4CC4)ccn3)s2)n1 [I-151, N-((S)-2-((1R,5R)-3-azabicyclo[3.1.1]heptan-3-yl)-1-(4-(cyclopropanesulfonamido)pyridin-2-yl)ethyl)-5-(6-ethoxypyrazin-2-yl)thiazole-2-carboxamide] | 50 to 100
CCOc1cncc(-c2cnc(C(=O)N[C@H](CN3C[C@H]4C[C@@H](C3)C4)c3cc(NS(=O)(=O)C4CC4)ccn3)s2)n1 [I-152, N-((R)-2-((1R,5R)-3-azabicyclo[3.1.1]heptan-3-yl)-1-(4-(cyclopropanesulfonamido)pyridin-2-yl)ethyl)-5-(6-ethoxypyrazin-2-yl)thiazole-2-carboxamide] | 5 to 25
CCOc1cncc(-c2cnc(C(=O)N[C@@H](CN3CC4(CCC4)C3)c3cc(NS(=O)(=O)C4CC4)ccn3)s2)n1 [I-153, (S)-N-(1-(4-(cyclopropanesulfonamido)pyridin-2-yl)-2-(2-azaspiro[3.3]heptan-2-yl)ethyl)-5-(6-ethoxypyrazin-2-yl)thiazole-2-carboxamide] | 25 to 50
CCOc1cncc(-c2cnc(C(=O)N[C@H](CN3CC4(CCC4)C3)c3cc(NS(=O)(=O)C4CC4)ccn3)s2)n1 [I-154, (R)-N-(1-(4-(cyclopropanesulfonamido)pyridin-2-yl)-2-(2-azaspiro[3.3]heptan-2-yl)ethyl)-5-(6-ethoxypyrazin-2-yl)thiazole-2-carboxamide] | 5 to 25

Other lines, results leading:

IC50 [nM] | Structure (SMILES)
5 to 25 | CCOc1cncc(-c2cnc(C(=O)N[C@H](Cn3ccnn3)c3cc(NS(=O)(=O)C4CC4)ccn3)s2)n1 [I-156, (R)-N-(1-(4-(cyclopropanesulfonamido)pyridin-2-yl)-2-(1H-1,2,3-triazol-1-yl)ethyl)-5-(6-ethoxypyrazin-2-yl)thiazole-2-carboxamide]
25 to 50 | CCOc1cncc(-c2cnc(C(=O)N[C@@H](Cn3nccn3)c3cc(NS(=O)(=O)C4CC4)ccn3)s2)n1 [I-157, (S)-N-(1-(4-(cyclopropanesulfonamido)pyridin-2-yl)-2-(2H-1,2,3-triazol-2-yl)ethyl)-5-(6-ethoxypyrazin-2-yl)thiazole-2-carboxamide]
5 to 25 | CCOc1cncc(-c2cnc(C(=O)N[C@H](Cn3nccn3)c3cc(NS(=O)(=O)C4CC4)ccn3)s2)n1 [I-158, (R)-N-(1-(4-(cyclopropanesulfonamido)pyridin-2-yl)-2-(2H-1,2,3-triazol-2-yl)ethyl)-5-(6-ethoxypyrazin-2-yl)thiazole-2-carboxamide]
5 to 25 | O=C(NC(CN1C[C@H]2C[C@@H]1CO2)c1cc(NS(=O)(=O)C2CC2)ccn1)c1ncc(-c2cnn3ccc(Cl)cc23)s1 (stereo partly drawn) [I-159, N-(2-((1R,4R)-2-oxa-5-azabicyclo[2.2.1]heptan-5-yl)-1-(4-(cyclopropanesulfonamido)pyridin-2-yl)ethyl)-5-(5-chloropyrazolo[1,5-a]pyridin-3-yl)thiazole-2-carboxamide]
5 to 25 | CCOc1cncc(-c2cnc(C(=O)N[C@@H](CF)c3cc(NS(=O)(=O)C4CC4)ccn3)s2)n1 [I-160, (R)-N-(1-(4-(cyclopropanesulfonamido)pyridin-2-yl)-2-fluoroethyl)-5-(6-ethoxypyrazin-2-yl)thiazole-2-carboxamide]
≤ 5 | CCOc1cncc(-c2cnc(C(=O)N[C@H](CF)c3cc(NS(=O)(=O)C4CC4)ccn3)s2)n1 [I-161, (S)-N-(1-(4-(cyclopropanesulfonamido)pyridin-2-yl)-2-fluoroethyl)-5-(6-ethoxypyrazin-2-yl)thiazole-2-carboxamide]
50 to 100 | O=C(N[C@@H](CN1CCCC1)c1cc(NS(=O)(=O)C2CC2)ccn1)c1ncc(-c2cnn3ccc(Cl)cc23)s1 [I-162, (S)-5-(5-chloropyrazolo[1,5-a]pyridin-3-yl)-N-(1-(4-(cyclopropanesulfonamido)pyridin-2-yl)-2-(pyrrolidin-1-yl)ethyl)thiazole-2-carboxamide]
25 to 50 | O=C(N[C@H](CN1CCCC1)c1cc(NS(=O)(=O)C2CC2)ccn1)c1ncc(-c2cnn3ccc(Cl)cc23)s1 [I-163, (R)-5-(5-chloropyrazolo[1,5-a]pyridin-3-yl)-N-(1-(4-(cyclopropanesulfonamido)pyridin-2-yl)-2-(pyrrolidin-1-yl)ethyl)thiazole-2-carboxamide]
50 to 100 | CN(C)C[C@H](NC(=O)c1ncc(-c2cnn3ccc(Cl)cc23)s1)c1cc(NS(=O)(=O)C2CC2)ccn1 [I-164, (S)-5-(5-chloropyrazolo[1,5-a]pyridin-3-yl)-N-(1-(4-(cyclopropanesulfonamido)pyridin-2-yl)-2-(dimethylamino)ethyl)thiazole-2-carboxamide, formic acid salt]
5 to 25 | CN(C)C[C@@H](NC(=O)c1ncc(-c2cnn3ccc(Cl)cc23)s1)c1cc(NS(=O)(=O)C2CC2)ccn1 [I-165, (R)-5-(5-chloropyrazolo[1,5-a]pyridin-3-yl)-N-(1-(4-(cyclopropanesulfonamido)pyridin-2-yl)-2-(dimethylamino)ethyl)thiazole-2-carboxamide, formic acid salt]
50 to 100 | CCOc1cncc(-c2cnc(C(=O)N[C@H](c3cc(NS(=O)(=O)C4CC4)ccn3)[C@H](C)N3C[C@H]4C[C@@H]3CO4)s2)n1 [I-166, N-((1S,2S)-2-((1R,4R)-2-oxa-5-azabicyclo[2.2.1]heptan-5-yl)-1-(4-(cyclopropanesulfonamido)pyridin-2-yl)propyl)-5-(6-ethoxypyrazin-2-yl)thiazole-2-carboxamide]
25 to 50 | CCOc1cncc(-c2cnc(C(=O)N[C@H](c3cc(NS(=O)(=O)C4CC4)ccn3)[C@@H](C)N3C[C@H]4C[C@@H]3CO4)s2)n1 [I-167, N-((1S,2R)-2-((1R,4R)-2-oxa-5-azabicyclo[2.2.1]heptan-5-yl)-1-(4-(cyclopropanesulfonamido)pyridin-2-yl)propyl)-5-(6-ethoxypyrazin-2-yl)thiazole-2-carboxamide]
5 to 25 | CCOc1cncc(-c2cnc(C(=O)N[C@@H](c3cc(NS(=O)(=O)C4CC4)ccn3)[C@H](C)N3C[C@H]4C[C@@H]3CO4)s2)n1 [I-168, N-((1R,2S)-2-((1R,4R)-2-oxa-5-azabicyclo[2.2.1]heptan-5-yl)-1-(4-(cyclopropanesulfonamido)pyridin-2-yl)propyl)-5-(6-ethoxypyrazin-2-yl)thiazole-2-carboxamide]
